From patent US10183047B2, “Chromium-containing compositions in combination with Phyllanthus emblica and shilajit having synergistic effects for improving endothelial function and cardiovascular health” (Natreon, Inc., priority 2014, dated 2019)
Marks after values point to notes of the source that are not given here.

How the values were obtained:
Assay type in all cases: in vivo, human
[1] = Blood pressure, type 2 diabetics; conditions: type 2 diabetics (Example 3), chromium products 400 mcg; for Diastolic blood pressure Post Tt / Systolic blood pressure Post Tt: post-treatment, 12 weeks; for Diastolic blood pressure Pre Tt / Systolic blood pressure Pre Tt: pre-treatment
Protocol: (§1) When the results with Crominex® 3+ in the above two examples were highly significant, especially with the 400 mcg once daily dose in type 2 diabetics, two more clinical studies (EXAMPLES 3 & 4) were conducted at the same institute, following the same methodology as described earlier, on the individual components of Crominex® 3+, i.e., chromium chloride and Phyllanthus emblica+Shilajit, and other chromium supplements available in the market, i.e., chromium picolinate, chromium polynicotinate and chromium dinicocysteinate, in type 2 diabetics as well as in subjects with metabolic syndrome symptoms.

fasting plasma glucose = experiment: Fasting plasma glucose, type 2 diabetics; conditions: for Fasting Glucose: DM, 400 mcg; for Fasting Plasma Glucose Post Tt / Fasting Plasma Glucose Pre Tt: type 2 diabetics (Example 3), chromium products 400 mcg; for Fasting Plasma Glucose Post Tt: post-treatment, 12 weeks; for Fasting Plasma Glucose Pre Tt: pre-treatment
Protocol: as §1

endothelial function = experiment: Reflection index (RI), salbutamol challenge test with digital volume plethysmography, type 2 diabetics; conditions: for RI: DM, 400 mcg; for Absolute change of RI / Reflection index (%) Post Tt / Reflection index (%) Pre Tt: type 2 diabetics (Example 3), chromium products 400 mcg; for Absolute change of RI: 12 week treatment; for Reflection index (%) Post Tt: post-treatment, 12 weeks; for Reflection index (%) Pre Tt: pre-treatment
Protocol: (§2) The present clinical study is a prospective, randomized, double blind, placebo-controlled study. Patients of either sex, aged 30-65 years, fasting plasma glucose of 110-126 mg/dl, a glycosylated hemoglobin (HbA1c) between 6.5% and 8% and taking stable dose of anti-diabetic treatment (metformin 1500-2000 mg/day) for the past 8 weeks prior to the screening visit; and having endothelial dysfunction defined as ≤6% change in reflection index (RI) on post salbutamol challenge test were included in the study. Patients with severe uncontrolled hyperglyceamia, uncontrolled hypertension, cardiac arrhythmia, impaired hepatic or renal function, history of malignancy or stroke, smoking, chronic alcoholism, any other serious disease requiring active treatment and treatment with any other herbal supplements, were excluded from the study.
(§3) After screening, all the eligible subjects were randomized to receive either one of the three treatments orally for duration of 12 weeks—Group1—one capsule of Crominex®3+, 200 mcg once daily, Group 2—one capsule Crominex®3+, 400 mcg once daily; Group 3—one capsule of placebo once daily.
(§4) Subjects were required for follow up at 4, 8 and 12 weeks of therapy. At each visit they were evaluated for efficacy and safety. Pharmacodynamic evaluation for endothelial function was conducted at every visit. Blood samples were collected for evaluation of biomarkers before and at the end of treatment. Safety lab investigations for hematological, hepatic and renal biochemical parameters were conducted before and at the end of the study and also as and when required (in case of any adverse drug reaction (ADR). Subjects were enquired for the presence of ADR and the same was recorded in the case report form. Compliance to therapy was assessed by pill count method.
Procedure for Assessment of Endothelial Function by Determination of Reflection Index (RI).
A salbutamol (albuterol) challenge test employing digital volume plethysmography was used to assess endothelial function as reported by Chowienczyk et al., “Photoplethysmographic assessment of pulse wave reflection: blunted response to endothelium dependant beta 2-adrenergic vasodilation in type 2 diabetes mellitus,” J. Am. Coll. Cardiol. (1999 December) 34(7):2007-14; and Naidu, et al., “Comparison of two β2 adrenoceptor agonists by different routes of administration to assess human endothelial function,” Indian J. Pharmacol. (2007) 39:168-9. The patients were examined in supine position after 5 minutes of rest. A digital volume pulse (DVP) was obtained using a photo plethysmograph (Pulse Trace PCA2, PT200, Micro Medical, Gallingham, Kent, UK) transmitting infrared light at 940 nm, placed on the index finger of the right hand. The signal from the plethysmograph was digitized using a 12 bit analogue to digital converter with a sampling frequency of 100 Hz. DVP waveforms were recorded over 20 second period and the height of the late systolic/early diastolic portion of the DVP was expressed as a percentage of the amplitude of the DVP to yield the reflection index (RI), per the procedure described in detail by Millasseau et al., “Determination of age related increases in large artery stiffness by digital pulse contour analysis,” Clinical Science (2002) 103: 371-377. Three DVP recordings were taken, and measurements of reflection index (RI) were calculated and the mean value was determined. Patients were then administered 400 μg of salbutamol by inhalation. After 15 minutes three measurements of RI were obtained again and the difference in mean RI before and after administration of salbutamol was used for assessing endothelial function. A change of ≤6% in RI post-salbutamol was considered as endothelial dysfunction.
The primary efficacy measure was a change in endothelial dysfunction as assessed by more than 6% change in reflection index at 12 weeks. […]

[2] = Blood pressure, metabolic syndrome subjects; conditions: metabolic syndrome subjects (Example 4), chromium products 400 mcg; for Diastolic blood pressure Post Tt / Systolic blood pressure Post Tt: after 12 weeks of treatment; for Diastolic blood pressure Pre Tt / Systolic blood pressure Pre Tt: pre-treatment
Excerpt: Patients included in the study, were of either gender, aged 30-68 years, having endothelial dysfunction defined as ≤6% change in reflection index (RI) on post salbutamol challenge test and central obesity as defined by The International Diabetes Federation guidelines, dated 2006, and any two of the following conditions:
After screening, all the eligible subjects were randomized to receive either one of the three treatments orally for duration of 12 weeks: group 1—one capsule of Crominex®3+ 200 mcg once daily; group 2—one capsule 400 mcg once daily; group 3—one capsule of Placebo once daily.
Subjects were reviewed for follow up at 4 weeks, 8 and 12 weeks of therapy. At each visit they were evaluated for efficacy and safety. Pharmacodynamic evaluation for endothelial function was conducted at baseline and end of treatment. Blood samples were collected for evaluation of biomarkers before and at end of treatment. Safety lab investigations for hematological, hepatic and renal biochemical parameters were conducted before and at the end of the study and also as and when required (in case of any adverse drug reaction (ADR)). Subjects were enquired for the presence of ADR and the same was recorded in the case report form. Compliance to therapy was assessed by pill count method.
as §1

lipid profile = experiment: Lipid profile (TC, HDL-C, LDL-C, TG, VLDL-C), type 2 diabetics; conditions: for HDL / LDL / TC / TG: DM, 400 mcg; for Mean percentage change in HDL-C / Mean percentage change in LDL-C / Mean percentage change in Total Cholesterol / Mean percentage change in Triglycerides / HDL-C Post Tt / LDL-C Post Tt / Total Cholesterol Post Tt / Triglycerides Post Tt / HDL-C Pre Tt / LDL-C Pre Tt / Total Cholesterol Pre Tt / Triglycerides Pre Tt: type 2 diabetics (Example 3), chromium products 400 mcg; for Mean percentage change in HDL-C / Mean percentage change in LDL-C / Mean percentage change in Total Cholesterol / Mean percentage change in Triglycerides: 12 weeks of treatment; for HDL-C Post Tt / LDL-C Post Tt / Total Cholesterol Post Tt / Triglycerides Post Tt: post-treatment, 12 weeks; for HDL-C Pre Tt / LDL-C Pre Tt / Total Cholesterol Pre Tt / Triglycerides Pre Tt: pre-treatment
Protocol: as §2, §3, §4
All the subjects had undergone complete physical examination, safety lab evaluations at baseline and at the end of the treatment. Samples were collected after an overnight fast of 12 hrs after the last dose of medication for determination of hemoglobin, glycosylated hemoglobin (HbA1c), blood urea, serum creatinine, liver function, lipid profile (Total cholesterol, High density lipoprotein cholesterol (HDL-C), low density lipoprotein cholesterol (LDL-C) using appropriate standard techniques.
as §1

| Molecule | Diastolic blood pressure Post Tt [1] [NS mmHg] | Systolic blood pressure Post Tt [1] [NS mmHg] | Diastolic blood pressure Pre Tt [1] [mmHg] | Systolic blood pressure Pre Tt [1] [mmHg] | Fasting Glucose (fasting plasma glucose) [%] | Fasting Plasma Glucose Post Tt (fasting plasma glucose) | Fasting Plasma Glucose Pre Tt (fasting plasma glucose) | RI (endothelial function) [%] | Absolute change of RI (endothelial function) | Reflection index (%) Post Tt (endothelial function) | Reflection index (%) Pre Tt (endothelial function) | Diastolic blood pressure Post Tt [2] [NS mmHg] | Systolic blood pressure Post Tt [2] [NS mmHg] | Diastolic blood pressure Pre Tt [2] [mmHg] | Systolic blood pressure Pre Tt [2] [mmHg] | HDL (lipid profile) [%] | LDL (lipid profile) [%] | TC (lipid profile) [%] | TG (lipid profile) [%] | Mean percentage change in HDL-C (lipid profile) | other results |
| --- | --- | --- | --- | --- | --- | --- | --- | --- | --- | --- | --- | --- | --- | --- | --- | --- | --- | --- | --- | --- | --- |
| O.O.O.O.O.O.[Cl][Cr]([Cl])[Cl] [Chromium chloride, Chromium chloride (CrCl3.6H2O)] | 77.16 ± 1.68 | 117.26 ± 1.52 | 77.05 ± 1.68 | 117.37 ± 2.50 | 0.87 | 134.21 ± 9.32 NS mg/dL | 133.05 ± 7.95 mg/dL | −0.57 | −0.57 + 0.36 #NS % | −3.22 ± 0.85 % | −3.79 ± 0.82^ % | 79.8 ± 2.66 | 122.9 ± 3.42 | 80.6 ± 2.67 | 124.7 ± 3.35 | 2.79 | −1.3 | −0.28 | −0.49 | 2.79 ± 2.88 @NS % | Mean percentage change in LDL-C (lipid profile): −1.30 ± 1.42 NS %; Mean percentage change in Total Cholesterol (lipid profile): −0.28 ± 0.81 #NS %; Mean percentage change in Triglycerides (lipid profile): −0.49 ± 0.93 NS %; HDL-C Post Tt (lipid profile): 39.95 ± 2.72 mg/dL; LDL-C Post Tt (lipid profile): 108.93 ± 10.40 mg/dL; Total Cholesterol Post Tt (lipid profile): 184.89 ± 9.67 NS mg/dl; Triglycerides Post Tt (lipid profile): 180.11 ± 7.80 $ mg/dl; HDL-C Pre Tt (lipid profile): 38.89 ± 2.85 mg/dL; LDL-C Pre Tt (lipid profile): 110.33 ± 10.74 mg/dL; Total Cholesterol Pre Tt (lipid profile): 185.42 ± 9.68 mg/dL; Triglycerides Pre Tt (lipid profile): 181.00 ± 7.84 mg/dL |
| chromium dinicocysteinate | 76.78 ± 1.22 | 118.11 ± 2.11 | 77.00 ± 1.41 | 118.89 ± 3.08 | −3.2 | 132.3 ± 4.41 $ mg/dL | 136.8 ± 6.99^ mg/dL | −1.03 | −1.03 + 0.34 #NS % | −3.82 ± 0.74 % | −4.85 ± 0.74^ % | 78.8 ± 2.67 | 122.0 ± 2.66 | 80.0 ± 2.99 | 124.8 ± 3.37 | 1.19 | −0.81 | −0.38 | −0.37 | 1.19 ± 4.01 NS % | Mean percentage change in LDL-C (lipid profile): −0.81 ± 1.52 $NS %; Mean percentage change in Total Cholesterol (lipid profile): −0.38 ± 0.86 #NS %; Mean percentage change in Triglycerides (lipid profile): −0.37 ± 0.92 NS %; HDL-C Post Tt (lipid profile): 37.83 ± 2.90 NS mg/dl; LDL-C Post Tt (lipid profile): 128.91 ± 16.46 $^ mg/dl; Total Cholesterol Post Tt (lipid profile): 201.28 ± 17.29 NS mg/dl; Triglycerides Post Tt (lipid profile): 172.67 ± 3.88 NS mg/dl; HDL-C Pre Tt (lipid profile): 37.39 ± 2.43 mg/dL; LDL-C Pre Tt (lipid profile): 130.00 ± 16.71 mg/dL; Total Cholesterol Pre Tt (lipid profile): 202.06 ± 17.48 mg/dL; Triglycerides Pre Tt (lipid profile): 173.33 ± 4.83 mg/dL |
| chromium picolinate | 76.32 ± 2.14 | 117.47 ± 2.82 | 76.95 ± 2.70 | 118.63 ± 2.75 | 1.2 | 134.84 ± 6.78 NS mg/dL | 133.21 ± 8.27 mg/dL | −2.2 | −2.22 + 0.89 # % | −2.46 ± 0.90 % | −4.68 ± 1.24^ % | 78.1 ± 2.26 | 121.5 ± 4.15 | 79.2 ± 3.58 | 123.1 ± 5.39 | 2.96 | −2.35 | −0.99 | −0.58 | 2.96 ± 3.38 @NS % | Mean percentage change in LDL-C (lipid profile): −2.35 ± 1.81 @NS %; Mean percentage change in Total Cholesterol (lipid profile): −0.99 ± 1.08NS %; Mean percentage change in Triglycerides (lipid profile): −0.58 ± 1.04 NS %; HDL-C Post Tt (lipid profile): 39.84 ± 1.12 $ mg/dl; LDL-C Post Tt (lipid profile): 119.07 ± 18.46 mg/dL; Total Cholesterol Post Tt (lipid profile): 194.68 ± 17.93 $ mg/dl; Triglycerides Post Tt (lipid profile): 178.84 ± 8.45 $ mg/dl; HDL-C Pre Tt (lipid profile): 38.74 ± 1.69 mg/dL; LDL-C Pre Tt (lipid profile): 121.92 ± 18.50 mg/dL; Total Cholesterol Pre Tt (lipid profile): 196.63 ± 18.07 mg/dL; Triglycerides Pre Tt (lipid profile): 179.89 ± 8.65 mg/dL |
| chromium polynicotinate | 79.7 ± 2.85 | 124.1 ± 4.88 | 81.2 ± 3.07 | 125.9 ± 5.17 | 0.63 | 136.3 ± 7.86 NS mg/dL | 135.45 ± 7.45 mg/dL | −1.04 | −1.04 + 0.39 #NS % | −3.71 ± 1.1 $ % | −4.3 ± 1.2% | 79.7 ± 2.85 | 124.1 ± 4.88 | 81.2 ± 3.07 | 125.9 ± 5.17 | −1.23 | −0.38 | −0.68 | −0.68 | −1.23 ± 3.71 @NS % | Mean percentage change in LDL-C (lipid profile): −0.38 ± 2.10 @NS %; Mean percentage change in Total Cholesterol (lipid profile): −0.68 ± 1.21$NS %; Mean percentage change in Triglycerides (lipid profile): −0.68 ± 0.83 NS %; HDL-C Post Tt (lipid profile): 38.65 ± 1.42 NS mg/dl; LDL-C Post Tt (lipid profile): 123.32 ± 8.70 NS mg/dl; Total Cholesterol Post Tt (lipid profile): 198.00 ± 8.64 $^ mg/dl; Triglycerides Post Tt (lipid profile): 180.15 ± 3.84 @ mg/dl; HDL-C Pre Tt (lipid profile): 39.15 ± 1.23 mg/dL; LDL-C Pre Tt (lipid profile): 123.97 ± 9.73 mg/dL; Total Cholesterol Pre Tt (lipid profile): 199.40 ± 9.25 mg/dL; Triglycerides Pre Tt (lipid profile): 181.40 ± 4.47 mg/dL |
